Experimental data as given in paper PMC3328449, “Inhibition of Diacylglycerol–Sensitive TRPC Channels by Synthetic and Natural Steroids” (PLoS ONE, 2012).
“And” between values parts separate entries of the source, which are not always exact repeats. Identical values can stand only once.

Columns and labels:
[1] = molecular target: T1, hTRPC6 (Homo sapiens, UniProt Q9Y210); experiment: Whole-cell patch clamp, AlF4- evoked TRPC6 currents; format: cell-based
T1 construct: expressed in transfected cells
T1 sequence (Q9Y210 1-931): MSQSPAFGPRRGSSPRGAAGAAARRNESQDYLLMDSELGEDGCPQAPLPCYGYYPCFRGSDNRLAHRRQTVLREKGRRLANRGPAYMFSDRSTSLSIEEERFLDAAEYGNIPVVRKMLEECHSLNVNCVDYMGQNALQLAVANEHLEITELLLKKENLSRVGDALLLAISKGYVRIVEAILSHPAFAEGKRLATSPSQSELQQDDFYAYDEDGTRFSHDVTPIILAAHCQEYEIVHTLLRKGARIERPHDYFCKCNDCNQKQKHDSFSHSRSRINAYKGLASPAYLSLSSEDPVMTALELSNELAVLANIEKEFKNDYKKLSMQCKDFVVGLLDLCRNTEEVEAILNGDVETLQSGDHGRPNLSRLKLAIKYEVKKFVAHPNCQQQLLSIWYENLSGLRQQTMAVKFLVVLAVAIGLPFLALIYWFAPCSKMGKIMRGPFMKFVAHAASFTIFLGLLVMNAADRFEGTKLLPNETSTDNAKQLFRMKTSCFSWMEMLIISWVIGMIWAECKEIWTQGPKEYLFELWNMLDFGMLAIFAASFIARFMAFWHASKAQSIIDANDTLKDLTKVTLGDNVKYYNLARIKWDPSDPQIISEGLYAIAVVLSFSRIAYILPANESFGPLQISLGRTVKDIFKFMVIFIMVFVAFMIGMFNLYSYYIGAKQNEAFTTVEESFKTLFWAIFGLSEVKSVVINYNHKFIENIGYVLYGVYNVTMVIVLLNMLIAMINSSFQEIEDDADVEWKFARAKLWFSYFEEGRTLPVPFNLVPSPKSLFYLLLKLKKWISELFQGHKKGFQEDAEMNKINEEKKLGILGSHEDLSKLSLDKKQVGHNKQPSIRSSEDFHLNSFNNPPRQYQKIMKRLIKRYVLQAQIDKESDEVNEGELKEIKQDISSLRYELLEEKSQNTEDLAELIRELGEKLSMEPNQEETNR
Experimental: Cells were grown at 37°C in a humidified atmosphere (5% or 7% CO2) under standard cell culture conditions. Stable human embryonic kidney (HEK) cell lines expressing recombinant mTRPC4ß (GenBank accession number AAC05178); mTRPC5 (GenBank accession number NM_009428) or hTRPC6 (GenBank accession number AF080394) under the control of a tetracycline-inducible promoter were generated using the Flp-In T-Rex (FITR) system (Invitrogen, Karlsruhe, Germany). TRPC4/5/6 HEK-FITR cells were maintained in Dulbecco's modified eagle medium (DMEM, with glutaMAX I, 4.5 g/l glucose and […] sodium pyruvate) supplemented with 10% (v/v) fetal bovine serum (Biochrom, Berlin, Germany), 1 mM glutamine, 1 mM MEM sodium pyruvate, 40 µg/ml hygromycin (50 µg/ml for mTRPC5 HEK-FITR cells), and 15 µg/ml blasticidine HCl. Channel expression was induced by supplementing the growth medium for 18–24 h with 1 µg/ml doxycycline.
The whole-cell patch clamp technique was employed to measure ion currents from single cells. […]
(§1) Cells grown on poly-L-lysine-coated coverslips were continuously superfused with extracellular solution and substances were applied using an ALA BPS-8 perfusion system (ALA Scientific Instruments, Westbury, USA). […] Cells were held at −70 mV, and current-voltage (I–V) relationships were routinely measured every 2 or 3 s by applying voltage ramps (180 ms) from −100 mV to +80 mV. […]
For statistical analysis, analysis of variance was performed with Origin 6.0 software (Microcal Software Inc., Northampton, USA). […] IC50 were calculated with SigmaPlot (Systat software, San Jose, USA) using the sigmoidal Hill-model: f = 100 (C^n/(IC50 ^n+C^n)); where f is the inhibition, C is the applied drug concentration and n is the Hill coefficient. The half maximal effective concentration (EC50) of norgestimate-induced vasorelaxation was calculated analogously with R = y0+y1C^n/(EC50 ^n+C^n); where R is relaxation, yo and y1 are constants, C is the applied drug concentration and n is the Hill coefficient. Averaged data is expressed as means ± SEM.

[2] = test system: A7r5 cells; experiment: Whole-cell patch clamp, AVP-induced receptor-operated cation currents in A7r5 cells; format: cell-based; details: 10 µM, 100 nM AVP, measured at −70 mV, reversible, n = 8
Experimental: A7r5 cells (ATCC, Rockville, USA) were maintained in DMEM (with glutaMAX I, 4.5 g/l glucose and […] sodium pyruvate), supplemented with 10% (v/v) fetal bovine serum (PAA, Pasching, Austria).
The whole-cell patch clamp technique was employed to measure ion currents from single cells. Heat-polished patch pipettes with resistances of 2–4 MΩ were pulled from borosilicate glass capillaries (Hilgenberg, Malsfeld, Germany) using a DMZ-Universal puller (Zeitz-Instruments, Munich, Germany) and filled with standard intracellular solution containing: 120 mM CsOH, 120 mM gluconic acid, 2 mM MgCl2, 3 mM CaCl2, 5 mM Cs4-BAPTA, 10 mM HEPES (pH 7.4 adjusted with gluconic acid). For agonist-independent stimulation of TRPC currents the intracellular solution was supplemented with 30 µM AlCl3 and 10 mM NaF and cells were infused with AlF4 ^− through the patch pipette. AlF4 ^− is a non-specific activator of heterotrimeric G proteins that consequently leads to increased phospholipase C activity and TRPC channel activation. […]
as §1

- Inhibition of TRPC6 currents ([1]; 10 µM, whole-cell patch clamp, AlF4- infusion): almost completely inhibited
- Hill slope, TRPC6 current inhibition ([1]; fit to dose-response equation): 1.19
- IC50 ([1]; whole-cell patch clamp, AlF4- infusion, read-out: IC50, TRPC6 current inhibition): 3.06 µM and ~3 µM
Structure (SMILES): C#C[C@]1(OC(C)=O)CC[C@H]2[C@@H]3CCC4=CC(=NO)CC[C@@H]4[C@H]3CC[C@@]21CC (mixture of isomers) [norgestimate]
- Reduction of AVP-induced receptor-operated cation currents [2]: 86.5±6.0%
